The values below come from PubChem BioAssay (NCI).

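Cells were grown in 96-well plates and exposed to each compound for 48 hours at five concentrations; endpoints were interpolated linearly between bracketing concentrations, or set to the highest concentration if not reached. GI50 is the concentration that inhibits growth by half. Definition used: TGI = concentration required for complete inhibition of growth.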 Where a SMILES comes first, the peptide text is derived from it. The star is where a group is joined. Bn = c1ccc(C*)cc1

Assay in all cases: NCI tumour cell line growth inhibition, 48 h
Assay [1] relates to CAKI-1 renal.
The test system of assay [2] is HCC-2998 colon.
The test system of assay [3] is HL-60(TB) leukemia.
In assay [4] the test system is K-562 leukemia.
The subject of assay [5] is KM12 colon.
The subject of assay [6] is LOX IMVI melanoma.
The subject of assay [7] is MALME-3M melanoma.
In assay [8] the test system is NCI-H23 lung.
The test system of assay [9] is SK-MEL-2 melanoma.
Assay [10] has as its system SK-MEL-5 melanoma.

Regarding `CC1=CC(=O)C(C(O)(C(F)(F)F)C(F)(F)F)C(C)(C)C1` (stereo unspecified), the TGI in assay [1], in [2], in assay [3], in assay [4], in assay [5] and in [6] was > 10 µM each time. For the same molecule, the TGI in [7], in [8], in assay [9] and in assay [10] was > 10 µM throughout.

Turning to `CC(C)CCn1nc(N)c2nc3ccccc3nc21`, the TGI in [1], in [2], in assay [3], in [4], in assay [5] and in assay [6] was > 100 µM each time. Also, the TGI in assay [7], in assay [8] and in assay [9] was > 100 µM throughout.

Regarding `Cc1nn(C(=O)c2ccc(Cl)cc2)c2c1C(c1ccc(O)cc1)SC(N)=N2` (stereo unspecified), the TGI in assay [1], in [2], in assay [3], in assay [4], in assay [5] and in assay [6] was > 10 µM in each case. Moreover, the TGI in [7], in assay [8], in assay [9] and in assay [10] was > 10 µM throughout.

With `COc1ccc(/C=N/N2C(=O)c3c(N)c(C#N)c(-c4ccccc4)c(-c4ccccc4)c3C2=O)cc1`, the TGI in [1], in assay [2], in [3], in assay [4], in assay [5] and in assay [6] was > 100 µM each time. Also, the TGI in assay [7], in assay [9] and in assay [10] was > 100 µM in each case.

`COC(=O)C(CC(C)C)NC(=O)C(N)Cc1ccc(OCc2ccccc2)cc1` (stereo unspecified) (H-Tyr(Bn)-Leu-OMe; configuration not given here): the TGI is > 10 µM in assay [1]; > 10 µM in [2]; 5.61 µM in assay [3]; > 10 µM in [4]; > 10 µM in [5]; > 10 µM in assay [6]. Besides, the TGI was 6.62 µM in assay [7], > 10 µM in [8], > 10 µM in assay [9] and > 10 µM in assay [10].

Take `O=C(O)CC(NC(=O)/C(=C/c1ccccc1O)NC(=O)c1ccccc1)C(=O)O` (stereo unspecified): the TGI in assay [1] was > 100 µM; in assay [2], > 100 µM; in assay [3], 76.5 µM; in assay [4], > 100 µM; in assay [5] it was > 100 µM; in [6] it was > 100 µM. Further, the TGI in [7], in [8], in assay [9] and in assay [10] was > 100 µM in each case.

Turning to `CC1C(c2ccc3c(c2)OCO3)c2cc3c(cc2OC1N1CCOCC1)OCO3` (stereo unspecified), the TGI in assay [1] was > 82.7 µM; in [2], 65.6 µM; in assay [3], > 62.2 µM; in assay [4], 67.7 µM; in [5], 94.2 µM; in assay [6], 60.2 µM. The TGI in [7] is 97.6 µM; in assay [8] it was > 100 µM; in assay [9], 58.8 µM; in assay [10], 42.7 µM.

With `COC(=O)c1cc2c(cc1CC(Cc1ccc3c(c1)CCC3)C(=O)OC)CCC2` (stereo unspecified), the TGI in assay [1] is > 100 µM; in assay [2], > 100 µM; in assay [3], 31.1 µM; in [4] it was > 100 µM; in assay [5] it was > 100 µM; in assay [6], > 100 µM. In addition, the TGI was > 100 µM in assay [7], > 100 µM in [8], > 100 µM in [9] and 67.6 µM in [10].

Turning to `C=C(C)[C@@]1(O[Si](C)(C)C)CCCC[C@@H]1CC(Sc1ccccc1)Sc1ccccc1`, the TGI was 25.8 µM in assay [1]; 29.8 µM in [2]; 40.8 µM in assay [3]; 41.2 µM in assay [4]; 23.8 µM in assay [5]; 37.2 µM in [6]. In addition, the TGI in [7] was found to be 24.4 µM; in assay [8], 30.9 µM; in assay [9], 31 µM; in assay [10], 34.8 µM.

Consider `COc1ccc(N=Nc2c3c(c(O)c4ccccc24)CCC(C)(C)O3)cc1`, for which the TGI was 72.3 µM in assay [1]; 24.5 µM in [2]; 50.1 µM in assay [3]; > 100 µM in assay [4]; 29.5 µM in assay [5]; 29.9 µM in assay [6]. Also, the TGI in assay [7] is 40.6 µM; in assay [8] it was 34.4 µM; in assay [9] it was 40.3 µM; in assay [10], 24.9 µM.

Consider `N#CC(=N)c1ncn(-c2ccccc2N)c1N`, for which the TGI in assay [1], in assay [2], in assay [3], in assay [4], in assay [5] and in assay [6] was > 100 µM in each case. Also, the TGI in assay [7], in [8], in [9] and in [10] was > 100 µM in each case.

For the molecule `COc1cc(OCc2ccc3nc(OC)c(OC)nc3c2)cc(OC)c1OC`, the TGI in [1], in assay [2], in assay [3], in [4], in assay [5] and in assay [6] was > 10 µM in each case. Besides, the TGI in assay [7] was > 10 µM; in assay [8], > 10 µM; in [9], > 2.29 µM; in assay [10], > 10 µM.

Consider `O=C1CC(Sc2nc3ccc(I)cc3c(=O)n2Cc2ccccc2)C(=O)NN1` (stereo unspecified), for which the TGI in [1] was found to be 11.2 µM; in assay [2], 31.8 µM; in assay [3] it was 38.4 µM; in [4] it was 50.5 µM; in assay [5], 38.8 µM; in assay [6] it was 11.2 µM. The TGI in [7] stood at 33.1 µM; in assay [8], 30.1 µM; in assay [9] it was 31.8 µM; in assay [10] it was 29.7 µM.

On to `O=C1CCCc2cc3c(cc21)CC1(C3)Cc2ccc3c(c2C1)C(=O)CCC3` (stereo unspecified), for which the TGI was > 100 µM in [1]; > 100 µM in assay [2]; 27.7 µM in [3]; > 100 µM in assay [4]; 37.9 µM in assay [5]; > 100 µM in assay [6]. For the same molecule, the TGI was 43.6 µM in [7], > 100 µM in assay [8], 88.9 µM in assay [9] and 7.66 µM in assay [10].

For `O=C(CCCN1CCC2(CC1)C(=NC1CCCCC1)NC(=O)N2c1ccccc1)c1ccc(F)cc1`, the TGI in assay [1] is > 100 µM; in [2], 37.7 µM; in assay [3], 57.4 µM; in assay [4], > 100 µM; in assay [5], 42.5 µM; in [6], 30 µM. Further, the TGI is 29.9 µM in assay [7], 48.1 µM in [8], 31.9 µM in assay [9] and 37.9 µM in [10].

For `O=C(Nc1ccc(-n2cc(-c3ccncc3)c(-c3ccc(O)c(Cl)c3)n2)cc1)Nc1cccc(Cl)c1Cl`, the GI50 was > 32.5 µM in assay [1]; 18.9 µM in [2]; 7.49 µM in assay [3]; 5.4 µM in assay [4]; 5.95 µM in [5]; 3.45 µM in assay [6]. The GI50 in assay [7] was 4.94 µM; in assay [8], 14.6 µM; in assay [9], 7.18 µM; in [10] it was 3.26 µM. Moreover, the TGI in assay [1], in assay [2], in assay [3], in assay [4], in [5] and in [6] was > 32.5 µM each time. Further, the TGI in assay [7], in assay [8], in [9] and in [10] was > 32.5 µM each time.

Take `O=C(CNCc1ccccc1)Oc1c(Cl)c(Cl)c(Cl)c(Cl)c1Cl`: the TGI in assay [1] is 56.1 µM; in [2] it was 53.9 µM; in [3], 52.4 µM; in assay [4], > 100 µM; in assay [5], 51.1 µM; in [6] it was 74.4 µM. In addition, the TGI in assay [7] is 65.3 µM; in assay [8], > 100 µM; in assay [9], 92 µM.

For `COC(=O)C1OC(O[C@H]2CC[C@]3(C)[C@H]4CC=C5[C@@H]6CC(C)(C)CC[C@]6(C(=O)OC6OCC(O)C(O)C6OC6OC(C)C(OC7OCC(OC8OCC(O)C(O)C8O)C(O)C7O)C(O)C6O)[C@H](O)C[C@@]5(C)[C@]4(C)CC[C@H]3C2(C)C)C(O)C(O)C1O` (stereo partly specified), the TGI is 11.7 µM in assay [1]; 3.06 µM in assay [2]; > 26.9 µM in assay [3]; 14.2 µM in assay [5]; 22 µM in [6]; 14.5 µM in [7]. The TGI in [8] amounted to 6.53 µM; in [9] it was 10.1 µM; in assay [10], 11.6 µM.

For the molecule `COc1ccc(-c2csc(NC(=O)CSc3nc(C)c(-c4ccccc4)n3Nc3ccccc3)n2)cc1`, the GI50 in [1] is 2.5 µM; in assay [2], > 100 µM; in [3], 6.29 µM; in assay [4], 5.29 µM; in assay [5], 5.71 µM; in [6], 5.85 µM. Besides, the GI50 in assay [8] was 4.96 µM; in assay [9] it was 9.52 µM; in assay [10], 4.45 µM. For the same molecule, the TGI in assay [1], in assay [2], in assay [3], in assay [4], in assay [5] and in assay [6] was > 100 µM each time. Besides, the TGI in assay [8], in assay [9] and in assay [10] was > 100 µM in each case.

For `CC12CC1C(c1cccc([N+](=O)[O-])c1)(c1cccc([N+](=O)[O-])c1)N=N2` (stereo unspecified), the TGI in assay [2] is > 100 µM; in assay [3] it was 45.8 µM; in assay [4], > 100 µM; in assay [5], 47.3 µM; in assay [6], 27.8 µM; in [7] it was 53.1 µM. In addition, the TGI in [8] was 51.5 µM; in assay [9], > 100 µM; in assay [10] it was > 100 µM.

Turning to `O=C(O)c1ccc2c(c1)CC1(C2)Cc2cc3c(cc2C1=O)CCC3` (stereo unspecified), the TGI in assay [2], in assay [3], in assay [4], in [5], in assay [6] and in assay [7] was > 100 µM in each case. Also, the TGI in [8], in assay [9] and in assay [10] was > 100 µM in each case.

Take `Cc1ccc(S(=O)(=O)NC(=O)NNc2ccc(F)cc2)cc1`: the TGI in assay [1] is > 100 µM; in [2], > 100 µM; in [3] it was > 100 µM; in assay [4], > 58.2 µM; in assay [5] it was > 100 µM; in assay [6], > 100 µM. In addition, the TGI in [7], in assay [9] and in assay [10] was > 100 µM throughout.

Take `O=C(O)CSC(NC(=O)C(C(F)(F)F)C(F)(F)F)(C(F)(F)F)C(F)(F)F`: the TGI in assay [1], in assay [2], in [3], in [4], in assay [6] and in assay [8] was > 100 µM each time. Moreover, the TGI in assay [9] and in assay [10] was > 100 µM each time.

In the case of `COC(=O)C1(Cc2ccc3c(c2)CCC3)Cc2cc3c(cc2C1)CCC3`, the TGI was 57.5 µM in assay [2]; 77.8 µM in [3]; > 100 µM in assay [4]; > 100 µM in [5]; 42.3 µM in assay [6]; > 100 µM in [8]. The TGI in assay [9] was 49.3 µM; in [10], > 100 µM.

As to `CCCCC/C(C=O)=C\c1ccccc1`, the TGI in [1] is > 100 µM; in assay [2], > 100 µM; in assay [3], > 100 µM; in assay [4], 69.8 µM; in assay [5] it was > 100 µM; in assay [6], > 100 µM. In addition, the TGI in assay [8], in assay [9] and in [10] was > 100 µM each time.
